Source: patent US11999769B2, “Method for isolating and purifying bacteriocin against drug-resistant Staphylococcus aureus” (Zhejiang Gongshang University, priority 2022, dated 2024)

Test system: S. aureus D48
Experiment: effect on membrane potential difference, DiSC2(5) fluorescent probe
Type: cell-based, Staphylococcus aureus
Details: bacteriocin 1×MIC; Triton X-100 5% solution as positive control; scanning time 15 min
Description: S. aureus D48 cells were prepared by the same method as that in Example 3, washed with a 5 mM fluorescent leakage buffer and resuspended to 5 mL to obtain a bacterial suspension. A fluorescent probe DiSC2(5) was set to have an excitation wavelength of 650 nm and an emission wavelength of 670 nm. The scanning interval was set as Ex slit: 5 nm, Em slit: 5 nm, and the scanning time was 15 min. 2 mL of the fluorescent leakage buffer, 20 μL of the bacterial suspension, and 3 μL of 0.1 mM probe DiSC2(5) were added to a fluorescence cuvette, and mixed uniformly for detection. After the fluorescence response value became stable, the L. rhamnosus ZFM216 bacteriocin solution with a final concentration of 1×MIC was quickly added in the experimental group, and the same volume of fluorescence leakage buffer and 5% Triton X-100 solution were added to the control groups respectively.
Note: The preparation method of the fluorescent leakage buffer is: 0.7455 g of potassium chloride and 0.2463 g of a magnesium sulfate heptahydrate solution are accurately weighed, 22.5 mL of a 20% glucose solution and 10 mL of a phosphate buffer solution are measured, the volume is diluted to 100 mL with ultrapure water, the pH is adjusted to 7, and the prepared fluorescent leakage buffer is stored at 4° C. for later use.

Substance: Triton X-100 [TritonX-100]
- fluorescence intensity of S. aureus D48 bacterial suspension (DiSC2(5)): rapidly increased to the highest value
